# Columns and labels:
# [1] = Antiproliferative activity against human NCI60 cells after 48 hrs; format: functional; details: NCI60, 48 h
# [2] = target: T1, DNA topoisomerase 1 (Homo sapiens) (UniProt P11387); test: Activity at recombinant top1 (unknown origin) assessed as DNA cleavage using 3'-[32P]-labeled 117-bp DNA as substrate at 0.1 to 100 uM after 20 mins by SDS-PAGE
# T1 sequence (whole entry): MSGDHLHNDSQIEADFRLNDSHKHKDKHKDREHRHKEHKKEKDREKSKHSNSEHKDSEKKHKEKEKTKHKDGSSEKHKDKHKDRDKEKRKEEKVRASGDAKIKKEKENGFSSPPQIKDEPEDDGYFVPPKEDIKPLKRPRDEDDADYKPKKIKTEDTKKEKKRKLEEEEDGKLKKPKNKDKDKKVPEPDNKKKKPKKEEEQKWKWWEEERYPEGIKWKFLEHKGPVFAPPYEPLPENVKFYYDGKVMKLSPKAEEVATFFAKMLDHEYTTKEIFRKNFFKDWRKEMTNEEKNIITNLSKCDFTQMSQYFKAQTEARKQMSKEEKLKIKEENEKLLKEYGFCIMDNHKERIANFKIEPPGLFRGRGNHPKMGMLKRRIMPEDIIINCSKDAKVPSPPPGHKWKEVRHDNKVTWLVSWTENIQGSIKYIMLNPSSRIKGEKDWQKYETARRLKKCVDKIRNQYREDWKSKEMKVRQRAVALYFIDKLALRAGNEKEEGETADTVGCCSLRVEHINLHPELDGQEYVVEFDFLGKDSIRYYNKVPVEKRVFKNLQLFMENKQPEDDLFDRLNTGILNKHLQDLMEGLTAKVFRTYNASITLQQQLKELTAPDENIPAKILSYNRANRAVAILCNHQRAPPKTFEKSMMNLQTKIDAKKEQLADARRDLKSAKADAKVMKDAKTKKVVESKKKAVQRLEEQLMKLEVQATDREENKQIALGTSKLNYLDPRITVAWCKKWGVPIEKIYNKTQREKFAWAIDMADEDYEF
# [3] = target: Tyrosyl-DNA phosphodiesterase 1 (Homo sapiens, UniProt Q9NUW8)
# Chain of Tyrosyl-DNA phosphodiesterase 1 (Q9NUW8 whole entry): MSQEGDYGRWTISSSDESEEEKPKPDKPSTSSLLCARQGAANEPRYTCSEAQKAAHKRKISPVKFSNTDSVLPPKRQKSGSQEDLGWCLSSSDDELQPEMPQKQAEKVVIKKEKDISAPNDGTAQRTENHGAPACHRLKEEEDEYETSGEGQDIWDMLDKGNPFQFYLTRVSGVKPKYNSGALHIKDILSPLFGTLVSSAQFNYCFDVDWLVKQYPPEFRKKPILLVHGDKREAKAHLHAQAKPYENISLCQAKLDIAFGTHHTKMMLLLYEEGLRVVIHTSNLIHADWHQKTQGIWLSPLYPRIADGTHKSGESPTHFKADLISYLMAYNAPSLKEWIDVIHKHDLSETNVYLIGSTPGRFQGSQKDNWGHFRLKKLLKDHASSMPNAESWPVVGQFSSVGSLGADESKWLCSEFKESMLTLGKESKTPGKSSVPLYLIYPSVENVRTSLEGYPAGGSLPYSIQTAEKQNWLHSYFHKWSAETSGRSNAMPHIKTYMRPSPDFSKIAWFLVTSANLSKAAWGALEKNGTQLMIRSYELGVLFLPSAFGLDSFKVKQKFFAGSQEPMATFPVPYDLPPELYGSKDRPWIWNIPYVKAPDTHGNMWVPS
# Description: Inhibition of recombinant TDP1 (unknown origin) using single stranded 5'-[32P]-labeled DNA containing 3'-phosphotyrosine as substrate after 15 mins by PAGE
# [4] = target: T2, Tyrosyl-DNA phosphodiesterase 2 (Homo sapiens, UniProt O95551)
# T2 sequence (O95551 whole entry): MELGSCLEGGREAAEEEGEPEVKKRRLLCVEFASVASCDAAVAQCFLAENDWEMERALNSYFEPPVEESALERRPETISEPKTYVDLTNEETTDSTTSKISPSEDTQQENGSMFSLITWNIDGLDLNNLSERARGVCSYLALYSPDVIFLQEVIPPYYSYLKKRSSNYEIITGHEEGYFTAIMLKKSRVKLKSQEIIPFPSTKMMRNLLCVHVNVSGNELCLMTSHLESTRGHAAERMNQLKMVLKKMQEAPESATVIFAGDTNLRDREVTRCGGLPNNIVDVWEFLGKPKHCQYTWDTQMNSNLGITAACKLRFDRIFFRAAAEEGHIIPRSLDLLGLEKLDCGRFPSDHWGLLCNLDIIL
# Description: Inhibition of human recombinant TDP2 using 19-mer single stranded DNA containing 5'-phosphotyrosine as substrate after 15 mins by PAGE
# [5] = Cytotoxicity against human NCI60 cells assessed as cell growth at 10 uM after 48 hrs; format: functional; details: NCI60, 48 h, read-out: Activity
# [6] = Antiproliferative activity against human HOP62 cells after 48 hrs; format: functional; details: HOP-62, 48 h
# [7] = Antiproliferative activity against human HCT116 cells after 48 hrs; format: functional; details: HCT-116, 48 h
# [8] = Antiproliferative activity against human SF539 cells after 48 hrs; format: functional; details: SF-539, 48 h
# [9] = Antiproliferative activity against human UACC62 cells after 48 hrs; format: functional; details: UACC-62, 48 h
# [10] = Antiproliferative activity against human OVCAR3 cells after 48 hrs; format: functional; details: OVCAR-3, 48 h
# SN12C = test: Antiproliferative activity against human SN12C cells after 48 hrs; format: functional
# [11] = Antiproliferative activity against human DU145 cells after 48 hrs; format: functional; details: DU-145, 48 h
# MCF7 = test: Antiproliferative activity against human MCF7 cells after 48 hrs; format: functional; details: MCF7, 48 h
smiles,measurement,setting,value
NCCCn1c2c(c3ccccc3c1=O)C(=O)c1ccccc1-2,GI50,[1],320 nM
same,Activity,[2],75%
O=C1c2ccccc2-c2c1c1ccccc1c(=O)n2CCCN1CCOCC1,GI50,[1],15100 nM
same,Activity,[2],50%
CN(C)CCCn1c2c(c3ccccc3c1=O)C(=O)c1ccccc1-2,Activity,[2],75%
O=C1c2ccccc2-c2c1c1ccccc1c(=O)n2C[C@H](O)CO,GI50,[1],8710 nM
same,Activity,[2],75%
O=C1c2ccccc2-c2c1c1ccccc1c(=O)n2CCCn1ccnc1,GI50,[1],1860 nM
same,Activity,[2],100%
O=C1c2ccccc2-c2c1c1ccncc1c(=O)n2C[C@H](O)CO,Activity,[2],50%
same,IC50,[3],> 111000 nM
same,IC50,[4],> 111000 nM
O=C1c2ccccc2-c2c1c1ccncc1c(=O)n2CCCn1ccnc1,growth at 10 µM,[5],47.5%
CN(C)CCCn1c2c(c3cccnc3c1=O)C(=O)c1ccccc1-2,growth at 10 µM,[5],5.45%
same,GI50,[6],1260 nM
same,GI50,[7],437 nM
same,GI50,[8],851 nM
same,GI50,[9],1290 nM
same,GI50,[10],2400 nM
same,GI50,SN12C,1120 nM
same,GI50,[11],1910 nM
same,GI50,MCF7,363 nM
same,Activity,[2],75%
same,IC50,[3],111000 nM
CN(C)CCCn1c2c(c3ncccc3c1=O)C(=O)c1ccccc1-2,growth at 10 µM,[5],44.4%
same,Activity,[2],50%
O=C1c2ccccc2-c2c1c1cccnc1c(=O)n2C[C@H](O)CO,growth at 10 µM,[5],61.7%
same,Activity,[2],20%
NCCCn1c2c(c3cnccc3c1=O)C(=O)c1ccccc1-2,Activity,[2],50%
same,IC50,[4],111000 nM
NCCCn1c2c(c3ccncc3c1=O)C(=O)c1ccccc1-2,Activity,[2],0%
same,IC50,[4],111000 nM
NCCCn1c2c(c3cccnc3c1=O)C(=O)c1ccccc1-2,growth at 10 µM,[5],12.2%
same,GI50,[6],1450 nM
same,GI50,[7],537 nM
same,GI50,[8],1380 nM
same,GI50,[9],1350 nM
same,GI50,[10],2290 nM
same,GI50,SN12C,1120 nM
same,GI50,[11],1910 nM
same,GI50,MCF7,417 nM
same,Activity,[2],50%
O=C1c2ccccc2-c2c1c1cnccc1c(=O)n2CCCn1ccnc1,growth at 10 µM,[5],67.8%
same,Activity,[2],50%
CN(C)CCCn1c2c(c3ccncc3c1=O)C(=O)c1ccccc1-2,GI50,[6],871 nM
same,GI50,[7],380 nM
same,GI50,[9],1230 nM
same,GI50,[10],2000 nM
same,GI50,SN12C,955 nM
same,GI50,[11],977 nM
same,GI50,MCF7,331 nM
O=C1c2ccccc2-c2c1c1cccnc1c(=O)n2CCCN1CCOCC1,growth at 10 µM,[5],42.9%
same,Activity,[2],75%
O=C1c2ccccc2-c2c1c1ncccc1c(=O)n2C[C@H](O)CO,Activity,[2],20%
O=C1c2ccccc2-c2c1c1cnccc1c(=O)n2C[C@H](O)CO,growth at 10 µM,[5],85.5%
same,Activity,[2],20%
O=C1c2ccccc2-c2c1c1cccnc1c(=O)n2CCCn1ccnc1,growth at 10 µM,[5],49.6%
same,Activity,[2],75%
O=C1c2ccccc2-c2c1c1ncccc1c(=O)n2CCCn1ccnc1,growth at 10 µM,[5],83.6%
same,Activity,[2],50%
CN(C)CCCn1c2c(c3cnccc3c1=O)C(=O)c1ccccc1-2,growth at 10 µM,[5],-8.83%
same,GI50,[6],398 nM
same,GI50,[7],245 nM
same,GI50,[8],380 nM
same,GI50,[9],309 nM
same,GI50,[10],1100 nM
same,GI50,SN12C,288 nM
same,GI50,[11],490 nM
same,GI50,MCF7,245 nM
same,Activity,[2],50%
O=C1c2ccccc2-c2c1c1cnccc1c(=O)n2CCCN1CCOCC1,Activity,[2],75%
NCCCn1c2c(c3ncccc3c1=O)C(=O)c1ccccc1-2,Activity,[2],50%
O=C1c2ccccc2-c2c1c1ncccc1c(=O)n2CCCN1CCOCC1,growth at 10 µM,[5],87.9%
same,Activity,[2],50%
CC[C@@]1(O)C(=O)OCc2c1cc1n(c2=O)Cc2cc3ccccc3nc2-1 [CAMPTOTHECIN],GI50,[10],220 nM
